By MIC is commonly meant the least concentration at which growth counts as inhibited.

≈ marks a conversion by molar mass, not a printed value. Like-named read-outs stand apart in the source and are kept apart here.

The test system of test [1] is E. faecalis ATCC 29212. Briefly: In-vitro antibacterial activity, broth microdilution MIC (CLSI). The class given is cell-based. Conditions: Enterococcus faecalis, ATCC29212, 35±2° C., 16-20 h, read visually. How it is done:
(§1) The in-vitro antibacterial activity of the compounds of the present invention (as described in Table 2) was determined by a broth microdilution following the guidelines prescribed by the Clinical and Laboratory Standards Institute (CLSI). This method is described in the CLSI Document M7-A7, Vol. 26, No. 2, “Methods for Dilution Antimicrobial Susceptibility Test for Bacteria that Grow Aerobically; Approved Standard-Seventh Edition”, which is incorporated herein by reference. Minimum Inhibitory Concentration (MIC) is defined as the minimum concentration of test compound which inhibits the growth of bacteria as visible or seen by the naked eye. This test can also be carried out by agar dilution method.
(§2) The compounds of the present invention were tested against a panel of standard microorganisms obtained from ATCC (American type culture collection), and a Linezolid resistant strain (LRSA) i.e. PTCC 100 (Panacea type culture collection). PTCC 100 is a repository that has been created by Panacea Biotec Ltd. at Mohali, India for storage and maintenance of clinical, bacterial and other isolates developed in-house which are used for testing the test compounds. Linezolid was used as comparator in all the tests.
(§3) In the broth microdilution method, the compound was dissolved in dimethylsulfoxide and two fold serial dilutions were carried out in 96 well microtitre plates. The inoculum was prepared by adjusting the turbidity of actively growing broth culture and added to the wells to obtain a final bacterial count of ˜2-5×10^4 CFU/well. The microtitre plates were incubated at 35±2° C. for 16-20 h and then read visually.
(Dilution methods test growth across graded concentrations, often in twofold steps.)

Test [2] relates to E. faecium ATCC 700221 (VRE). The test is described as above. Conditions: Enterococcus faecium, 35±2° C., 16-20 h, read visually, read-out: MIC E. faecium ATTC 700221 (VRE). The class given is cell-based. How it is done: as §1, §2, §3
The test system of test [3] is S. aureus ATCC 29213 (MSSA). Described as above. The class given is cell-based. Conditions: Staphylococcus aureus, 35±2° C., 16-20 h, read visually. How it is done: as §1, §2, §3
For test [4], the system named is S. aureus ATCC 33591 (MRSA). Described as above. The note with it: Staphylococcus aureus, 35±2° C., 16-20 h, read visually. In kind it is cell-based. As to the method: as §1, §2, §3
The test system of test [5] is S. aureus PTCC 100 (LRSA). As to the kind of experiment: In-vitro antibacterial activity, broth microdilution MIC against linezolid resistant strain. The class given is cell-based. The note with it: Staphylococcus aureus. How it is done:
as §1, §2, §3
PTCC 100 was developed by a procedure similar to the one cited in Antimicrobial Agents and Chemotherapy, 2008, 52, 1940. Female Swiss albino mice (18-22gm) bred in-house were inoculated with S. aureus ATCC 29213 strain and dosed orally with Linezolid at 5 mg/kg/p.o, next day mice were sacrificed after 20-22 h and intraperitoneal swab was taken and streaked onto Mueller Hinton Agar plates containing 4 and 8 μg/mL of Linezolid. Colonies obtained on 4 μg/mL and 8 μg/mL were selected from plates and further passaged into mice (SAM), dosed orally with Linezolid at 7.5 mg/kg/p.o. Mice were sacrificed and intraperitoneal swabs were streaked onto plates containing higher linezolid concentration i.e 16 and 32 μg/mL and the process was repeated by incrementally increasing the concentration of Linezolid upto 10 mg/kg/p.o in mice, to finally obtain S. aureus strains resistant to Linezolid at 64 μg/mL.

For test [6], the system named is S. aureus ATCC 29213. Briefly: In-vivo efficacy: systemic model of infection in mice. More on the design: species or system Staphylococcus aureus. The note with it: female Swiss albino mice, i.p. infection, oral dosing at 1 h and 5 h post infection, 50% survival at 7 days. As to the method: Female Swiss albino mice bred in-house were selected in weight range of 19-23 gm (n=6/group). S. aureus ATCC 29213 was grown overnight for 18-20 h, on Columbia Blood Agar (Difco; BD). Next day bacterial inoculum was prepared with optical density (O.D) corresponding to cell density of ˜2˜10^9 CFU/ml and mixed with 10% of gastric mucin (Difco; BD) in ratio of 1:1 to obtain final mucin concentration of 5% w/v. 0.5 mL of bacterial inoculum was injected intraperitoneally (i.p) into all the mice. Compounds obtained in the present invention, hereinafter referred as Test compounds were formulated in 0.25% Carboxymethylcellulose (C.M.C) and Tween 80, at different dose levels and then administered orally at 1 h and 5 h post infection. Linezolid was used as standard control. Saline was administered to the infection control group which received neither the test compound nor the standard drug. […] Numbers of survivors in each group were noted and ED50 of test compound on the basis of 50% survival was calculated through regression analysis.

The mark [7] stands for this setting: PTCC100, read-out: MIC S. aureus PTCC 100 (LRSA).

Take `COC(=O)NC[C@H]1CN(c2cc(F)c(N3CCN(C(=O)CNC(=O)c4cn5ccncc5n4)CC3)c(F)c2)C(=O)O1` [Compound 1]: the MIC in test [1] was 0.5 mg/L (≈ 0.873 µM); in test [2] it was 0.25 mg/L (≈ 0.437 µM); in test [3] it was 0.5 mg/L (≈ 0.873 µM); in test [4], 0.25 mg/L (≈ 0.437 µM); in test [5] (setting [7]), 0.25 mg/L (≈ 0.437 µM).
In the case of `CC(=O)NC[C@H]1CN(c2cc(F)c(N3CCN(C(=O)[C@H](CC(C)C)NC(=O)c4cn5ccncc5n4)CC3)c(F)c2)C(=O)O1` [Compound 2], the minimum inhibitory concentration (MIC) in test [1] came to 2 mg/L (≈ 3.26 µM); in test [2], 1 mg/L (≈ 1.63 µM); in test [3] it was 2 mg/L (≈ 3.26 µM); in test [4], 2 mg/L (≈ 3.26 µM); in test [5] (setting [7]) it was 4 mg/L (≈ 6.53 µM).
As for `COC(=O)NC[C@H]1CN(c2ccc(N3CCN(C(=O)CNC(=O)c4cn5ccncc5n4)CC3)c(F)c2)C(=O)O1` [Compound 3], the MIC in test [1] turned out to be 0.5 mg/L (≈ 0.902 µM); in test [2] it was 0.25 mg/L (≈ 0.451 µM); in test [3], 0.5 mg/L (≈ 0.902 µM); in test [4], 0.5 mg/L (≈ 0.902 µM); in test [5] (setting [7]), 2 mg/L (≈ 3.61 µM).
Regarding `COC(=O)NC[C@H]1CN(c2cc(F)c(N3CCN(C(=O)[C@H](CO)NC(=O)c4cn5ccncc5n4)CC3)c(F)c2)C(=O)O1` [Compound 4], the minimal inhibitory concentration (MIC) turned out to be 0.5 mg/L (≈ 0.83 µM) in test [1]; 0.5 mg/L (≈ 0.83 µM) in test [2]; 0.5 mg/L (≈ 0.83 µM) in test [3]; 0.5 mg/L (≈ 0.83 µM) in test [4]; 1 mg/L (≈ 1.66 µM) in test [5] (setting [7]).
Consider `COC(=O)NC[C@H]1CN(c2cc(F)c(N3CCN(C(=O)[C@H](C)NC(=O)c4cn5ccncc5n4)CC3)c(F)c2)C(=O)O1` [Compound 5], for which the MIC in test [1] is 0.5 mg/L (≈ 0.852 µM); in test [2], 0.5 mg/L (≈ 0.852 µM); in test [3] it was 0.5 mg/L (≈ 0.852 µM); in test [4], 0.5 mg/L (≈ 0.852 µM); in test [5] (setting [7]), 1 mg/L (≈ 1.7 µM).
`CC(=O)NC[C@H]1CN(c2cc(F)c(N3CCN(C(=O)CNC(=O)c4cn5ccncc5n4)CC3)c(F)c2)C(=O)O1` [Compound 6]: the minimal inhibitory concentration (MIC) in test [1] is 0.5 mg/L (≈ 0.898 µM); in test [2], 0.5 mg/L (≈ 0.898 µM); in test [3] it was 0.5 mg/L (≈ 0.898 µM); in test [4], 0.5 mg/L (≈ 0.898 µM); in test [5] (setting [7]), 1 mg/L (≈ 1.8 µM).
Consider `CC(=O)NC[C@H]1CN(c2cc(F)c(N3CCN(C(=O)C4(NC(=O)c5cn6ccncc6n5)CCCC4)CC3)c(F)c2)C(=O)O1` [Compound 7], for which the minimum inhibitory concentration (MIC) in test [1] was found to be 8 mg/L (≈ 13.1 µM); in test [2] it was 8 mg/L (≈ 13.1 µM); in test [3], 32 mg/L (≈ 52.4 µM); in test [4], 16 mg/L (≈ 26.2 µM).
For `COC(=O)NC[C@H]1CN(c2ccc(N3CCCN(C(=O)CNC(=O)c4cn5ccncc5n4)CC3)c(F)c2)C(=O)O1` [Compound 25], the minimum inhibitory concentration (MIC) in test [1] came out at 1 mg/L (≈ 1.76 µM); in test [2], 1 mg/L (≈ 1.76 µM); in test [3], 2 mg/L (≈ 3.52 µM); in test [4], 2 mg/L (≈ 3.52 µM).
Consider `COC(=O)NC[C@H]1CN(c2cc(F)c(N3CCN(C(=O)CNC(=O)c4ccc(Cl)nc4)CC3)c(F)c2)C(=O)O1` [Compound 130], for which the minimum inhibitory concentration (MIC) in test [1] stood at 0.25 mg/L (≈ 0.441 µM); in test [2] it was 0.125 mg/L (≈ 0.22 µM); in test [3], 0.25 mg/L (≈ 0.441 µM); in test [4], 0.25 mg/L (≈ 0.441 µM); in test [5] (setting [7]) it was 8 mg/L (≈ 14.1 µM).
As to `C[C@H](NC(=O)c1cn2cccnc2n1)C(=O)N1CCN(c2c(F)cc(N3C[C@H](CNC(=O)c4ccno4)OC3=O)cc2F)CC1` [Compound 190], the MIC in test [1] stood at 0.25 mg/L (≈ 0.401 µM); in test [2], 0.5 mg/L (≈ 0.802 µM); in test [3], 0.25 mg/L (≈ 0.401 µM); in test [4], 0.25 mg/L (≈ 0.401 µM).
For the molecule `COC(=O)NC[C@H]1CN(c2cc(F)c(N3CCN(C(=O)[C@H](C)NC(=O)c4ccc(F)nc4)CC3)c(F)c2)C(=O)O1` [Compound 196], the MIC in test [1] came to 0.5 mg/L (≈ 0.886 µM); in test [2], 0.25 mg/L (≈ 0.443 µM); in test [3] it was 0.5 mg/L (≈ 0.886 µM); in test [4], 0.5 mg/L (≈ 0.886 µM).
Regarding `COC(=O)NC[C@H]1CN(c2cc(F)c(N3CCN(C(=O)[C@H](C)NC(=O)c4cccnc4F)CC3)c(F)c2)C(=O)O1` [Compound 197], the MIC in test [1] was found to be 0.5 mg/L (≈ 0.886 µM); in test [2] it was 0.25 mg/L (≈ 0.443 µM); in test [3], 1 mg/L (≈ 1.77 µM); in test [4], 0.5 mg/L (≈ 0.886 µM).
As to `CC(=O)NC[C@H]1CN(c2ccc(N3CCOCC3)c(F)c2)C(=O)O1` [Linezolid, reference compound], the minimal inhibitory concentration (MIC) came to 2 mg/L (≈ 5.93 µM) in test [1]; 2 mg/L (≈ 5.93 µM) in test [2]; 2 mg/L (≈ 5.93 µM) in test [3]; 1 mg/L (≈ 2.96 µM) in test [4]; 32 mg/L (≈ 94.9 µM) in test [5] (setting [7]); 64 mg/L in test [5] (PTCC100, read-out: MIC of isolated colonies (PTCC 100)). The “ED50 values S. aureus ATCC 29213” value in test [6] is given as 6.0 mg/kg/p.o.

These data come from US8841306B2, “Antimicrobials” (Panacea Biotec Ltd., priority 2008, dated 2014).
